Key:
VEGFR-2 = VEGFR-2 (Homo sapiens, UniProt P35968); experiment: Kinase inhibition assay (ELISA); type: biochemical; conditions: 1.5 µM ATP
Description: (§1) To determine the interaction of our compounds with tyrosine kinases: PDGFR-α, cKIT, PDGFR-β, VEGFR-2 we used enzyme-linked immunosorbent assay (ELISA).
(§2) Determination plates preparation: The plates are processed by neutravidine for 2 h at 30°C. After washing thrice with TBS/0.1% Tween-20 and blocking with 1% BSA/TBS for 1 h at room temperature (RT) 96-well microtiter plates were washed thrice with TBS/0.1% Tween-20 again.
(§3) Reaction: After addition test compounds (in DMSO, DMSO final concentration - 5%) to reaction buffer (20 mM HEPES, pH 7.5, 15 mM MgCl2, 3 mM MnCl2, 2 mM DTT, 0.2 mM Na3VO4, 0.005% Triton X-100; PDGFR-α,: 0.05 µg/ml, 0.5 µg/ml Poly(G,T)-biotin; PDGFR-β: 0.05 µg/ml, 1 µg/ml Poly(G,T)-biotin; c-KIT: 0.03 µg/ml, 0.15 µg/ml Poly(G,T)-biotin; VEGFR-2: 0.07 µg/ml, 0.05 µg/ml Poly(G,T)-biotin) and preincubation of reaction for 10 min at RT and intensive agitation, ATP solution (PDGFR-α, - 1 µM, PDGFR-β - 0.5 µM, c-KIT - 60 µM, VEGFR-2: - 1.5 µM ATP in reaction buffer per well) was added to initiate reaction. Following incubation of mixture for 1 h at 30°C and intensive agitation the reaction was stopped by stop solution (20 mM HEPES, pH 7.5, 50 mM EDTA).
(§4) Kinase activity determination: The reaction mixture was transferred to determination plate. After mix incubation for 1 h at RT and intensive agitation the plates were washed thrice with TBS/0.1% Tween-20. Following mouse monoclonal 0.05 µg/ml Anti-p-Tyr (PY20) HRP antibodies (Santa Cruz Biotechnology) in PBS/BSA were added for 1 h at RT and intensive agitation. After washing, antibody binding was detected by tetramethylbenzidine (TMB) color development (Sigma). Measurement of A450 nm was carried out after addition of H2SO4

PDGFR-α = PDGFR-α (Homo sapiens, UniProt P16234); experiment: Kinase inhibition assay (ELISA); type: biochemical; conditions: 1 µM ATP
Description: as §1, §2, §3, §4

cKIT = cKIT (Homo sapiens, UniProt P10721); experiment: Kinase inhibition assay (ELISA); type: biochemical; conditions: 60 µM ATP
Description: as §1, §2, §3, §4

A375 = experiment: MTT proliferation / cytotoxicity assay; type: cell-based, human; conditions: Homo sapiens, A-375, 72 h
Description: (§5) Cell culture. The human cancer cell lines A172, A375, A2780 and U251 were purchased from the American Type Culture Collection. All cells were routinely maintained in DMEM containing 10% fetal bovine serum (Omega Scientific), at 37°C in 5% C02.
(§6) Proliferation assay Inhibition of cell A172, A375, A2780 and U251 cell proliferation was assessed by a MTT assay (MTT = Thiazolyl Blue Tetrazolium Bromide) . Cells were inoculated into 96-well microtiter plates containing 0.5% fetal calf serum and incubated at 37°C, 5% CO2, 95% air, and 100% relative humidity for 24 h prior to addition of testing compounds. Following compounds addition, the plates were incubated for an additional 72 h before processing to measure the cell population. Each compound was tested at eight different concentrations in triplicate, as was a control sample. Growth inhibition of 50% (IC50) is calculated by analysis of the data in Prizm3.4 software.
(§7) Table 8 lists IC50 values for inhibition of growth of several cancer cell lines, including the glioblastoma cell lines A172 and U251, measured in a MTT cytotoxicity assay. Table 8. Data of cytotoxicity assay (MTT) for several cancer cell lines, IC50 [µM]

A2780 = experiment: MTT proliferation / cytotoxicity assay; type: cell-based, human; conditions: Homo sapiens, A2780, 72 h
Description: as §5, §6, §7

U251 = experiment: MTT proliferation / cytotoxicity assay; type: cell-based, human; conditions: Homo sapiens, U-251, 72 h, glioblastoma cell line
Description: as §5, §6, §7

A172 = experiment: MTT proliferation / cytotoxicity assay; type: cell-based, human; conditions: Homo sapiens, A 172, 72 h, glioblastoma cell line
Description: as §5, §6, §7

PDGFR-α, sequence (P16234 24-1089, species assumed): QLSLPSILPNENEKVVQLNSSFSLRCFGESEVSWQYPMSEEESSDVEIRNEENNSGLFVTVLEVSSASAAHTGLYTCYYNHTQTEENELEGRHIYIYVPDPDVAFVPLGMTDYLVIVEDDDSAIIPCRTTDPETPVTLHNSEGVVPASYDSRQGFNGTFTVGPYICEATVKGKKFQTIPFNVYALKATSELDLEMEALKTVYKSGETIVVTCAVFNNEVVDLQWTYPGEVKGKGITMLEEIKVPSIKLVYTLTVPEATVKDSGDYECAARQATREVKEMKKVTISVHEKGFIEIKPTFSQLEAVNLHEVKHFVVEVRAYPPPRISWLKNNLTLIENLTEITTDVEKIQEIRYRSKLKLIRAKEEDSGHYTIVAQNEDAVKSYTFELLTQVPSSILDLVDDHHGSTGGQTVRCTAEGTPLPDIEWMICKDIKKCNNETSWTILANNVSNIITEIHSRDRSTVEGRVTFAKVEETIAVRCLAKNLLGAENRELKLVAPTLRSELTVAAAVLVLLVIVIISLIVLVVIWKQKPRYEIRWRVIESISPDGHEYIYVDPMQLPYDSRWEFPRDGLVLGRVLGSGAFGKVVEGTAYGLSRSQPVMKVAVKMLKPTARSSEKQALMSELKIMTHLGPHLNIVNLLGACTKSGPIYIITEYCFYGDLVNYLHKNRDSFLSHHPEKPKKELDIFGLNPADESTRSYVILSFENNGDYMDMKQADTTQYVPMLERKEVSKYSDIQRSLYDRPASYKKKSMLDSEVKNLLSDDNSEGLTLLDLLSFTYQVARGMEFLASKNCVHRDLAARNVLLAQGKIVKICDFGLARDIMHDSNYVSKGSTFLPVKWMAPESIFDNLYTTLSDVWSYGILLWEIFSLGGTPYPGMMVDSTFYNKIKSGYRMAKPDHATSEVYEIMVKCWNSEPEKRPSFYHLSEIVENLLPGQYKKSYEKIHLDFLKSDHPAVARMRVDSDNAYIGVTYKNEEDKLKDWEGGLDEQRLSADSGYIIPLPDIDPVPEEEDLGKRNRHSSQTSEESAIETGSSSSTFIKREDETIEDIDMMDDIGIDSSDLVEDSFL
cKIT, sequence (P10721 26-976): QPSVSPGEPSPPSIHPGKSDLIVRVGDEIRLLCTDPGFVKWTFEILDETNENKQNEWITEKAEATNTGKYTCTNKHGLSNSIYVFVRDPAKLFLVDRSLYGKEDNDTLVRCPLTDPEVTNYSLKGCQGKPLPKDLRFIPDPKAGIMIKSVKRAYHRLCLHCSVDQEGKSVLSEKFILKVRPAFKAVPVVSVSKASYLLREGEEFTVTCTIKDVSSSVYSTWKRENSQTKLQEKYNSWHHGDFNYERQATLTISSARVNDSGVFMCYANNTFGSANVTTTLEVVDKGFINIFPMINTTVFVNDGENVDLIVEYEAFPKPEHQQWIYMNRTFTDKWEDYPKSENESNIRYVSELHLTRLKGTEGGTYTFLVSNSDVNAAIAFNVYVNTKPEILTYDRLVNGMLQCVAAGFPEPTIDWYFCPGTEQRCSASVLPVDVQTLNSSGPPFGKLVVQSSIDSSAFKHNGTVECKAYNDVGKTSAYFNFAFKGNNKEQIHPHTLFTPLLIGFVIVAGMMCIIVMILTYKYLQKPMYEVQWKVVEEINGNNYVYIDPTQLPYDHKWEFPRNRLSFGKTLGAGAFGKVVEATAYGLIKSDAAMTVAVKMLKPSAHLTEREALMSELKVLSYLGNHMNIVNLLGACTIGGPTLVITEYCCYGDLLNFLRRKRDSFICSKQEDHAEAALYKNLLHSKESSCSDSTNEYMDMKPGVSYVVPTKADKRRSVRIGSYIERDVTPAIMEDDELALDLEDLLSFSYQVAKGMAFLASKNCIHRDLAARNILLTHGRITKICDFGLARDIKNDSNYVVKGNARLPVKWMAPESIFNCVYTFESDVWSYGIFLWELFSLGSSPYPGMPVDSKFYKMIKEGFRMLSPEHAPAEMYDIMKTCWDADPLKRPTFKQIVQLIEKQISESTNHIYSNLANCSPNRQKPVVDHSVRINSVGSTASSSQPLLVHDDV
VEGFR-2, sequence (P35968 20-1356, species assumed): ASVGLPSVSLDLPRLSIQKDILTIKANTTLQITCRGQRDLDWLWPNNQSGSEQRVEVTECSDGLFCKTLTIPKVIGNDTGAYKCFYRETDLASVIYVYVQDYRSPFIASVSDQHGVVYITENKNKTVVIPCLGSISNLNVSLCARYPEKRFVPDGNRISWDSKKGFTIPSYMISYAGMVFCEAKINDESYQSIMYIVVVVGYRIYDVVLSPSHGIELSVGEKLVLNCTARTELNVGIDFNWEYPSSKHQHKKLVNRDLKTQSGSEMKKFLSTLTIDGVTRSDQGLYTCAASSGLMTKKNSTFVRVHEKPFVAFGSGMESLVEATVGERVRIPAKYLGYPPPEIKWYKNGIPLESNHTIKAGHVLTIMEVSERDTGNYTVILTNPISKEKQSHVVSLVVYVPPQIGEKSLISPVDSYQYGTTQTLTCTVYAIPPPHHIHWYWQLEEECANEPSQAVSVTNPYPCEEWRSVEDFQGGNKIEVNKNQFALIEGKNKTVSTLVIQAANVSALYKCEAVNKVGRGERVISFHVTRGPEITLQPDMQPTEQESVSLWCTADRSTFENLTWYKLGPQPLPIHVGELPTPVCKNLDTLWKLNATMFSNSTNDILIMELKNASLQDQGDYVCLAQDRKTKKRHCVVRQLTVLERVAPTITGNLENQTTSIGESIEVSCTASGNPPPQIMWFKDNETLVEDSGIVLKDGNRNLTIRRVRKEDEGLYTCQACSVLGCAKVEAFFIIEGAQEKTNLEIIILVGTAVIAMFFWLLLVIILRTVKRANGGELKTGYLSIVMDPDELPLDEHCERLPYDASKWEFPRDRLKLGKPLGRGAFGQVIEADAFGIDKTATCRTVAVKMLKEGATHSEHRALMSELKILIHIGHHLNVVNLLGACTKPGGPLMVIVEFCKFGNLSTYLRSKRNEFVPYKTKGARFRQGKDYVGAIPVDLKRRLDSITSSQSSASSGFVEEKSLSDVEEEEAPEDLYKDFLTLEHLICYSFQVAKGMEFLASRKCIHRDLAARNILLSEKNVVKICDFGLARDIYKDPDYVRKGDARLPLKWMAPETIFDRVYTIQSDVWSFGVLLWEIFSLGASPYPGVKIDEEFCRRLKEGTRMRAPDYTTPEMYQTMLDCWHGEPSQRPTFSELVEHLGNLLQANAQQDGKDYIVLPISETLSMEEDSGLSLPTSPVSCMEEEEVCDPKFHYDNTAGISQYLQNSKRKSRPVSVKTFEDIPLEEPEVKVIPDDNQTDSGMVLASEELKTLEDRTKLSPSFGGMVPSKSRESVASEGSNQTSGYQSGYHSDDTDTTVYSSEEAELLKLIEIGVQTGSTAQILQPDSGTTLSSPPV

Row | IC50 (VEGFR-2) [nM] | IC50 (PDGFR-α) [nM] | IC50 (cKIT) [nM] | Compound | IC50 (A375) [µM] | IC50 (A2780) [µM] | IC50 (U251) [µM] | IC50 (A172) [µM]
1 | > 10 | < 10 | < 10 | Fc1ccc(-c2cnc(Nc3cc(CC4CCNCC4)ccn3)s2)cc1 [Example 001, [5-(4-Fluoro-phenyl)-thiazol-2-yl]-(4-piperidin-4-ylmethyl-pyridin-2-yl)-amine] | > 1 | > 1 | > 1 | > 10
2 | > 10 | < 10 | < 10 | CC(=O)N1CCC(Cc2ccnc(Nc3ncc(-c4ccc(F)cc4)s3)c2)CC1 [Example 002, 1-(4-{2-[5-(4-Fluoro-phenyl)-thiazol-2-ylamino]-pyridin-4-ylmethyl}-piperidin-1-yl)-ethanone] | > 1 | > 1 | > 10 | > 1
3 | – | – | – | CN1CCC(Cc2ccnc(Nc3ncc(-c4ccc(F)cc4)s3)c2)CC1 [Example 004, [5-(4-Fluoro-phenyl)-thiazol-2-yl]-[4-(1-methyl-piperidin-4-ylmethyl)-pyridin-2-yl]-amine] | > 1 | > 1 | > 10 | > 1
4 | – | – | – | CN1CCOCC(Cc2ccnc(Nc3ncc(-c4ccc(F)cc4)s3)c2)C1 (stereo not drawn) [Example 010, [5-(4-Fluoro-phenyl)-thiazol-2-yl]-[4-(4-methyl-[1,4]oxazepan-6-ylmethyl)-pyridin-2-yl]-amine] | > 1 | > 1 | > 10 | > 1
5 | > 10 | < 10 | > 10 | c1ccc(-c2cnc(Nc3cc(CC4CCNC4)ccn3)s2)cc1 (stereo not drawn) [Example 014, (5-Phenyl-thiazol-2-yl)-(4-pyrrolidin-3-ylmethyl-pyridin-2-yl)-amine] | – | – | – | –
6 | > 10 | < 10 | < 10 | CNC1CCC(Cc2ccnc(Nc3ncc(-c4ccc(F)cc4)s3)c2)CC1 (stereo not drawn) [Example 016, [5-(4-Fluoro-phenyl)-thiazol-2-yl]-[4-(4-methylamino-cyclohexylmethyl)-pyridin-2-yl]-amine] | – | > 1 | – | > 1
7 | > 10 | < 10 | < 10 | Fc1ccc(-c2cnc(Nc3cc(CC4CCC5CNCC54)ccn3)s2)cc1 (stereo not drawn) [Example 018, [5-(4-Fluoro-phenyl)-thiazol-2-yl]-[4-(octahydro-cyclopenta[c]pyrrol-4-ylmethyl)-pyridin-2-yl]-amine] | – | > 1 | – | > 1
8 | > 100 | < 10 | < 10 | Fc1ccc(-c2cnc(Nc3cccc(CC4CCC5CNCC54)n3)s2)cc1 (stereo not drawn) [Example 020, [5-(4-Fluoro-phenyl)-thiazol-2-yl]-[6-(octahydro-cyclopenta[c]pyrrol-4-ylmethyl)-pyridin-2-yl]-amine] | – | < 1 | – | ≤ 1
9 | > 10 | < 10 | > 10 | Fc1ccc(-c2cnc(Nc3cccc(CC4COC5(CCNCC5)C4)n3)s2)cc1 (stereo not drawn) [Example 024, [5-(4-Fluoro-phenyl)-thiazol-2-yl]-[6-(1-oxa-8-aza-spiro[4.5]dec-3-ylmethyl)-pyridin-2-yl]-amine] | – | ≤ 1 | – | ≤ 1
10 | – | – | – | c1ccc(-c2cnc(Nc3cc(CC4CCCNCC4)ccn3)s2)cc1 (stereo not drawn) [Example 026, (4-Azepan-4-ylmethyl-pyridin-2-yl)-(5-phenyl-thiazol-2-yl)-amine] | > 1 | ≤ 1 | > 10 | > 1
11 | > 10 | < 10 | > 10 | c1ccc(-c2cnc(Nc3cc(C4CCCN4)ccn3)s2)cc1 (stereo not drawn) [Example 027, (5-Phenyl-thiazol-2-yl)-(4-pyrrolidin-2-yl-pyridin-2-yl)-amine] | – | – | – | –
12 | > 100 | > 10 | < 10 | Cc1cc(Nc2ncc(-c3ccccc3)s2)nc(C2CCN(CCO)CC2)n1 [Example 029, 2-{4-[4-Methyl-6-(5-phenyl-thiazol-2-ylamino)-pyrimidin-2-yl]-piperidin-1-yl}-ethanol] | – | ≤ 1 | > 1 | ≤ 1
13 | > 100 | > 10 | > 100 | OCCN1CCC(c2cncc(Nc3ncc(-c4ccccc4)s3)n2)CC1 [Example 030, 2-{4-[6-(5-Phenyl-thiazol-2-ylamino)-pyrazin-2-yl]-piperidin-1-yl}-ethanol] | – | – | – | –
14 | > 10 | < 10 | > 10 | Cc1nc(Nc2ncc(-c3ccccc3)s2)cc(C2CCN(C(=O)C(C)(C)N)CC2)n1 [Example 031, 2-Amino-2-methyl-1-{4-[2-methyl-6-(5-phenyl-thiazol-2-ylamino)-pyrimidin-4-yl]-piperidin-1-yl}-propan-1-one] | – | > 1 | > 10 | > 1
15 | – | – | > 100 | CCCc1cnc(Nc2cccc(C3CCN(C(=O)C(C)(C)N)CC3)n2)s1 [Example 041, 2-Amino-2-methyl-1-[6-(5-propyl-thiazol-2-ylamino)-3',4',5',6'-tetrahydro-2'H-[2,4']bipyridinyl-1'-yl]-propan-1-one] | > 1 | ≤ 1 | – | –
16 | > 100 | < 10 | > 10 | OCCN1CCC(c2cccc(Nc3ncc(-c4ccnc(Cl)c4)s3)n2)CC1 [Example 046, 2-{6-[5-(2-Chloro-pyridin-4-yl)-thiazol-2-ylamino]-3',4',5',6'-tetrahydro-2'H-[2,4']bipyridinyl-1'-yl}-ethanol] | – | – | – | –
17 | > 100 | > 100 | > 1000 | CC(C)(C)Cc1cnc(Nc2cccc(C3CCN(C(=O)C(C)(C)N)CC3)n2)s1 [Example 047, 2-Amino-1-{6-[5-(2,2-dimethylpropyl)-thiazol-2-ylamino]-3',4',5',6'-tetrahydro-2'H-[2,4']bipyridinyl-1'-yl}-2-methyl-propan-1-one] | > 1 | ≤ 1 | – | –
18 | > 100 | > 10 | > 1000 | OCCN1CCC(c2ccnc(Nc3ncc(/C=C/c4ccccc4)s3)c2)CC1 [Example 048, 2-{2'-[5-((E)-Styryl)-thiazol-2-ylamino]-3,4,5,6-tetrahydro-2H-[4,4']bipyridinyl-1-yl}-ethanol] | – | – | – | –

Row | Compound | IC50 (VEGFR-2) [nM] | IC50 (PDGFR-α) [nM] | IC50 (cKIT) [nM] | IC50 (A375) [µM] | IC50 (A2780) [µM] | IC50 (U251) [µM] | IC50 (A172) [µM]
19 | OCCN1CCC(CO)(c2cccc(Nc3ncc(-c4ccccc4)s3)n2)CC1 [Example 042, 2-[4'-Hydroxymethyl-6-(5-phenyl-thiazol-2-ylamino)-3',4',5',6'-tetrahydro-2'H-[2,4']bipyridinyl-1'-yl]-ethanol] | > 10000 | > 100 | > 100 | – | – | – | –
20 | CN(C)CC1(c2cccc(Nc3ncc(-c4ccccc4)s3)n2)CCN(CCO)CC1 [Example 043, 2-[4'-Dimethylaminomethyl-6-(5-phenyl-thiazol-2-ylamino)-3',4',5',6'-tetrahydro-2'H-[2,4']bipyridinyl-1'-yl]-ethanol] | > 10000 | > 1000 | > 10000 | – | – | – | –
21 | CC(C)(C)OC(=O)N1CCC(c2cccc(Nc3ncc(C#CC4CC4)s3)n2)CC1 [Example 045, 6-(5-Cyclopro-pylethynyl-thiazol-2-ylamino)-3',4',5',6'-tetrahydro-2'H-[2,4']bipyridinyl-1'-carboxylic acid tert-butyl ester] | > 10 | > 10000 | > 10000 | – | – | – | –

— patent EP2719696A1, “NOVEL KINASE INHIBITORS” (Asinex Limited, priority 2011, dated 2012)
